From article PMC7749635 (2021) come the findings set out here.

Test in all cases: in-line probing
Experiment [1] deals with 65 pnuC (RNA, riboswitch) GGAAAAUCUAUAGAGCGUUGCGUCCGAAAGUCUAAACAGACACGGCUCUUUAAAAACAAAAGGAGAAG
Particulars: 20 mM Mg2+, 100 mM K+, 50 mM Tris-HCl pH 8.3, ~23 °C.

In experiment [2] the test system is 85 pnuC (RNA, riboswitch) GGAGGAGAAGCGGUUCAAAUCGAAAAUCUAUAGAGCGUUGCGUCCGAAAGUCUAAACAGACACGGCUCUUUAAAAACAAAAGGAGAAG
Conditions: 20 mM Mg2+, 100 mM K+; 50 mM Tris-HCl pH 8.3, ~23 °C; tested at 0.1 and 1 mM.

Experiment [3] has as its system M2 (A60U) (RNA, riboswitch) GGAAAAUCUAUAGAGCGUUGCGUCCGAAAGUCUAAACAGACUCGGCUCUUUAAAAACAAAAGGAGAAG
Conditions: 20 mM Mg2+, 100 mM K+; 50 mM Tris-HCl pH 8.3, ~23 °C; tested at 1 mM.

In experiment [4] the test system is M1 (G35U) (RNA, riboswitch) GGAAAAUCUAUAGAGCUUUGCGUCCGAAAGUCUAAACAGACACGGCUCUUUAAAAACAAAAGGAGAAG
Conditions: 20 mM Mg2+, 100 mM K+; 50 mM Tris-HCl pH 8.3, ~23 °C; tested at 1 mM.

For the compound `O=C(O)c1cccnc1`, in experiment [1] (tested at 0.1 and 1 mM), the binding entry is listed as “no”.

Regarding `Cc1ncc(C[n+]2csc(CCOP(=O)(O)OP(=O)(O)O)c2C)c(N)n1`, in experiment [2], the binding result was “no”.

As for `NC(=O)c1ccc[n+]([C@@H]2O[C@H](COP(=O)([O-])OP(=O)(O)OC[C@H]3O[C@@H](n4cnc5c(N)ncnc54)[C@H](O)[C@@H]3O)[C@@H](O)[C@H]2O)c1`, the KD in experiment [1] (apparent) was ~ 100 µM.

For `Cc1cc2nc3c(=O)[nH]c(=O)nc-3n(C[C@H](O)[C@H](O)[C@H](O)COP(=O)(O)O)c2cc1C`, the binding entry in experiment [2] is “no”.

`NC(=O)c1ccc[n+]([C@@H]2O[C@H](COP(=O)(O)O)[C@@H](O)[C@H]2O)c1`: the binding result in experiment [3] is on record as “no”; in experiment [2], “yes”; in experiment [4], “no”.
